Laboratory results taken from publication PMC4867616, “Imaging of Cerebral Amyloid Angiopathy with Bivalent ^99mTc-Hydroxamamide Complexes” (Scientific Reports, 2016).
Where “and” joins values, the source holds several entries; their conditions need not be identical. Identical values can stand only once.

Tests used:
[1] = Ex vivo biodistribution in normal mice; set-up: species or system ddY mice; details: i.v., mean (SD), 5 animals
Procedure: To evaluate brain uptake of ^99mTc-Ham complexes, biodistribution experiments of ^99mTc-Ham complexes were performed in normal mice. We selected ^18F-florbetapir as a control and compared the results of ^99mTc-Ham complexes with that of ^18F-florbetapir (Fig. 2). The brain uptake of [^99mTc]SB1A, [^99mTc]SB2A, [^99mTc]BT1B, and [^99mTc]BT2B at 2 min postinjection was 0.37, 0.28, 0.36, and 0.37% injected dose (ID)/g, respectively. The radioactivity in the brains remained low until 60 min postinjection. The results of the biodistribution study are shown in Table S1 in Supplementary information.
A saline solution (100 μL) of ^99mTc-Ham complexes (20 kBq) containing EtOH (10 μL) was injected directly into the tail vein of ddY mice (male, 5 weeks old). The mice were sacrificed at 2, 10, 30, and 60 min postinjection. The organs of interest were removed and weighed, and radioactivity was measured using a γ counter (PerkinElmer). The %ID/g of samples was calculated by comparing the sample counts with the count of the diluted initial dose.
*Corresponding author: M. Ono. Address: 46-29 Yoshida Shimoadachi-cho, Sakyo-ku, Kyoto 606-8501, Japan, Phone: +81-75-753-4608, Fax: +81-75-753-4568, E-mail: ono@pharm.kyoto-u.ac.jp. Ex vivo biodistribution in normal mice. A saline solution (100 μL) of ^99mTc-Ham complexes (20 kBq) containing EtOH (10 μL) was injected directly into the tail vein of ddY mice (male, 5 weeks old). The mice were sacrificed at 2, 10, 30, and 60 min postinjection. The organs of interest were removed and weighed, and radioactivity was measured using a γ counter (Wallac 1470 Wizard; PerkinElmer, Massachusetts, USA). Percentage dose per organ was calculated by comparing the tissue counts to suitably diluted aliquots of the injected material. The %dose/g of samples was calculated by comparing the sample counts with the count of the diluted initial dose.

[2] = target: T1, Aβ depositions in Tg2576 mouse brain (Homo sapiens, UniProt P05067); experiment: Ex vivo autoradiography using Tg2576 and wild-type mice; type: in vivo; details: for Selectivity for vascular versus parenchymal amyloid aggregates (ex vivo autoradiography, thioflavin-S and anti-CD31 staining): Tg2576 mice, 30 min postinjection
T1 construct: Aβ(1–40) aggregates, the predominant amyloid found in CAA; tissue Taconic Farms, Inc. (New York, USA); host or cells: brain of living female Tg2576 transgenic mice
T1 sequence (P05067 672-711 limits assumed): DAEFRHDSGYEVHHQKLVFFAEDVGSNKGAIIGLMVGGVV
Procedure: Tg2576 transgenic mice (female, 29 months old) and wild-type mice (female, 29 months old) were used as the AD model and age-matched control, respectively. A saline solution (150 μL) of [^99mTc]SB2A or [^99mTc]BT2B (18.5 MBq) containing EtOH (30 μL) was injected through the tail vein. The mice were sacrificed at 30 min postinjection. The brains were immediately removed, embedded in carboxymethylcellulose solution and then frozen in a dry ice/hexane bath. Sections of 30 μm were cut and exposed to a BAS imaging plate (Fuji Film) overnight. Autoradiographic images were obtained using a BAS5000 scanner system (Fuji Film). After autoradiographic examination, the same sections were stained by thioflavin-S to confirm the presence of Aβ depositions. For thioflavin-S fluorescent staining, the sections were immersed in a 100 μM thioflavin-S solution containing 50% EtOH for 3 min, washed in 50% EtOH for 1 min two times, and examined using a microscope (Keyence Corp.) equipped with a GFP-BP filter set. Additionally, the same sections were immunostained by anti-CD31 antibody to confirm the presence of endothelial cells. For immunohistochemical staining of CD31, the sections were incubated in PBST for 5 min three times, and incubated with anti-CD31 primary antibody (SZ31; Abcam, Cambridgeshire, U.K., dilution 1:50) at room temperature overnight. After three 5-min incubations in PBST, anti-rabbit secondary antibody (Dako, California, USA) incubation was carried out at room temperature for 3 h. Subsequently, the sections were incubated in PBST for 5 min three times, and incubated with diaminobenzidine (Merck) as a chromogen for 5 min. After washing with water, the sections were observed under a microscope (Keyence Corp.).
Ex vivo autoradiography using Tg2576 and wild-type mice. Tg2576 transgenic mice (female, 29 months old) and wild-type mice (female, 29 months old) were used as the Alzheimer’s model and age-matched control, respectively. A saline solution (150 µL) of [^99mTc]BT2B (18.5 MBq) containing ethanol (30 µL) was injected through the tail vein. […]

## CN(C)c1ccc(/C=C/c2ccc(C3=N[O][99Tc-]4(=[O])([NH]3)[NH2+]C(c3ccc(/C=C/c5ccc(N(C)C)cc5)cc3)=N[O]4)cc2)cc1 (single isomer, unassigned) [[^99mTc]SB2A]
[1]; 2 min after injection
  Biodistribution of radioactivity, Heart: 12.64 (1.59) % injected dose per gram
  Biodistribution of radioactivity, Intestine: 1.52 (0.25) % injected dose per gram
  Biodistribution of radioactivity, Kidney: 5.03 (0.52) % injected dose per gram
  Biodistribution of radioactivity, Liver: 25.52 (1.67) % injected dose per gram
  Biodistribution of radioactivity, Lung: 14.35 (1.86) % injected dose per gram
  Biodistribution of radioactivity, Pancreas: 3.35 (0.60) % injected dose per gram
  Biodistribution of radioactivity, Spleen: 10.76 (0.96) % injected dose per gram
  Biodistribution of radioactivity, Stomach: 3.15 (0.56) % injected dose per organ
[1]; 10 min after injection
  Biodistribution of radioactivity, Heart: 6.57 (0.92) % injected dose per gram
  Biodistribution of radioactivity, Intestine: 1.71 (0.11) % injected dose per gram
  Biodistribution of radioactivity, Kidney: 3.57 (0.41) % injected dose per gram
  Biodistribution of radioactivity, Liver: 29.35 (2.85) % injected dose per gram
  Biodistribution of radioactivity, Lung: 7.79 (0.50) % injected dose per gram
  Biodistribution of radioactivity, Pancreas: 2.12 (0.08) % injected dose per gram
  Biodistribution of radioactivity, Spleen: 11.24 (2.26) % injected dose per gram
  Biodistribution of radioactivity, Stomach: 8.78 (1.32) % injected dose per organ
[1]; 30 min after injection
  Biodistribution of radioactivity, Heart: 8.58 (1.32) % injected dose per gram
  Biodistribution of radioactivity, Intestine: 2.64 (0.36) % injected dose per gram
  Biodistribution of radioactivity, Kidney: 3.61 (0.29) % injected dose per gram
  Biodistribution of radioactivity, Liver: 27.04 (3.90) % injected dose per gram
  Biodistribution of radioactivity, Lung: 7.26 (1.02) % injected dose per gram
  Biodistribution of radioactivity, Pancreas: 2.06 (0.11) % injected dose per gram
  Biodistribution of radioactivity, Spleen: 8.91 (3.26) % injected dose per gram
  Biodistribution of radioactivity, Stomach: 16.13 (2.33) % injected dose per organ
[1]; 60 min after injection
  Biodistribution of radioactivity, Heart: 8.27 (1.19) % injected dose per gram
  Biodistribution of radioactivity, Intestine: 4.05 (0.55) % injected dose per gram
  Biodistribution of radioactivity, Kidney: 3.39 (0.20) % injected dose per gram
  Biodistribution of radioactivity, Liver: 24.95 (3.38) % injected dose per gram
  Biodistribution of radioactivity, Lung: 6.48 (0.49) % injected dose per gram
  Biodistribution of radioactivity, Pancreas: 1.83 (0.07) % injected dose per gram
  Biodistribution of radioactivity, Spleen: 7.58 (2.60) % injected dose per gram
  Biodistribution of radioactivity, Stomach: 14.72 (4.51) % injected dose per organ
[2]; Tg2576 mice (29 months old) vs wild-type, i.v., brains removed at 30 min postinjection
  Ex vivo autoradiography labeling of Aβ depositions in transgenic mice: intensive labeling of Aβ depositions
[2]
  Selectivity for vascular versus parenchymal amyloid aggregates (ex vivo autoradiography, thioflavin-S and anti-CD31 staining): selectively bound to amyloid aggregates deposited along vessels but not within parenchyma

## CN(C)c1ccc(-c2nc3ccc(C4=N[O][99Tc-]5(=[O])([NH]4)[NH2+]C(c4ccc6nc(-c7ccc(N(C)C)cc7)sc6c4)=N[O]5)cc3s2)cc1 [[^99mTc]BT2B]
[1]; 2 min after injection
  Biodistribution of radioactivity, Blood: 23.15 (4.78) % injected dose per gram
  Biodistribution of radioactivity, Brain: 0.37 % injected dose per gram and 0.37 (0.11) % injected dose per gram
  Biodistribution of radioactivity, Heart: 9.48 (4.83) % injected dose per gram
  Biodistribution of radioactivity, Intestine: 1.32 (0.21) % injected dose per gram
  Biodistribution of radioactivity, Kidney: 6.04 (0.96) % injected dose per gram
  Biodistribution of radioactivity, Liver: 23.21 (5.72) % injected dose per gram
  Biodistribution of radioactivity, Lung: 22.06 (3.09) % injected dose per gram
  Biodistribution of radioactivity, Pancreas: 2.81 (0.35) % injected dose per gram
  Biodistribution of radioactivity, Spleen: 10.83 (1.58) % injected dose per gram
  Biodistribution of radioactivity, Stomach: 0.69 (0.12) % injected dose per organ
[1]; 10 min after injection
  Biodistribution of radioactivity, Blood: 10.05 (1.78) % injected dose per gram
  Biodistribution of radioactivity, Brain: 0.20 (0.04) % injected dose per gram
  Biodistribution of radioactivity, Heart: 8.62 (2.34) % injected dose per gram
  Biodistribution of radioactivity, Intestine: 1.97 (0.26) % injected dose per gram
  Biodistribution of radioactivity, Kidney: 5.02 (0.40) % injected dose per gram
  Biodistribution of radioactivity, Liver: 33.78 (6.07) % injected dose per gram
  Biodistribution of radioactivity, Lung: 11.97 (1.01) % injected dose per gram
  Biodistribution of radioactivity, Pancreas: 2.19 (0.35) % injected dose per gram
  Biodistribution of radioactivity, Spleen: 14.49 (3.50) % injected dose per gram
  Biodistribution of radioactivity, Stomach: 3.77 (0.56) % injected dose per organ
[1]; 30 min after injection
  Biodistribution of radioactivity, Blood: 3.72 (0.49) % injected dose per gram
  Biodistribution of radioactivity, Brain: 0.10 (0.02) % injected dose per gram
  Biodistribution of radioactivity, Heart: 6.67 (1.52) % injected dose per gram
  Biodistribution of radioactivity, Intestine: 6.44 (1.04) % injected dose per gram
  Biodistribution of radioactivity, Kidney: 3.47 (0.57) % injected dose per gram
  Biodistribution of radioactivity, Liver: 31.45 (3.39) % injected dose per gram
  Biodistribution of radioactivity, Lung: 5.38 (1.16) % injected dose per gram
  Biodistribution of radioactivity, Pancreas: 1.14 (0.25) % injected dose per gram
  Biodistribution of radioactivity, Spleen: 10.91 (1.59) % injected dose per gram
  Biodistribution of radioactivity, Stomach: 6.47 (1.37) % injected dose per organ
[1]; 60 min after injection
  Biodistribution of radioactivity, Blood: 1.81 (0.44) % injected dose per gram
  Biodistribution of radioactivity, Brain: 0.05 (0.01) % injected dose per gram
  Biodistribution of radioactivity, Heart: 7.08 (1.34) % injected dose per gram
  Biodistribution of radioactivity, Intestine: 13.90 (1.52) % injected dose per gram
  Biodistribution of radioactivity, Kidney: 3.13 (0.48) % injected dose per gram
  Biodistribution of radioactivity, Liver: 35.76 (3.34) % injected dose per gram
  Biodistribution of radioactivity, Lung: 4.50 (0.60) % injected dose per gram
  Biodistribution of radioactivity, Pancreas: 1.27 (0.28) % injected dose per gram
  Biodistribution of radioactivity, Spleen: 4.80 (0.63) % injected dose per gram
  Biodistribution of radioactivity, Stomach: 4.20 (1.21) % injected dose per organ
[2]
  Selectivity for vascular versus parenchymal amyloid aggregates (ex vivo autoradiography, thioflavin-S and anti-CD31 staining): specific detection of CAA
